Source: ChEMBL document CHEMBL4627271, “Design, synthesis and evaluation of new 4-arylthiazole-2-amine derivatives as acetylcholinesterase inhibitors” (Bioorg Med Chem Lett, 2020)
Active and inactive are the calls of the source. The rule behind the calls is not given here.

Key:
Cholinesterase = Cholinesterase (Canis lupus familiaris, UniProt P32750); assay: Inhibition of dog serum BChE using butrylthiocholine iodide as substrate by spectrophotometry based Ellman's method
Acetylcholinesterase [1] = target: Acetylcholinesterase (Electrophorus electricus, UniProt O42275); assay: Inhibition of Electric eel AChE using […] as substrate by spectrophotometry based Ellman's method
Sequence of Acetylcholinesterase (Electrophorus electricus, UniProt O42275) (O42275 whole entry): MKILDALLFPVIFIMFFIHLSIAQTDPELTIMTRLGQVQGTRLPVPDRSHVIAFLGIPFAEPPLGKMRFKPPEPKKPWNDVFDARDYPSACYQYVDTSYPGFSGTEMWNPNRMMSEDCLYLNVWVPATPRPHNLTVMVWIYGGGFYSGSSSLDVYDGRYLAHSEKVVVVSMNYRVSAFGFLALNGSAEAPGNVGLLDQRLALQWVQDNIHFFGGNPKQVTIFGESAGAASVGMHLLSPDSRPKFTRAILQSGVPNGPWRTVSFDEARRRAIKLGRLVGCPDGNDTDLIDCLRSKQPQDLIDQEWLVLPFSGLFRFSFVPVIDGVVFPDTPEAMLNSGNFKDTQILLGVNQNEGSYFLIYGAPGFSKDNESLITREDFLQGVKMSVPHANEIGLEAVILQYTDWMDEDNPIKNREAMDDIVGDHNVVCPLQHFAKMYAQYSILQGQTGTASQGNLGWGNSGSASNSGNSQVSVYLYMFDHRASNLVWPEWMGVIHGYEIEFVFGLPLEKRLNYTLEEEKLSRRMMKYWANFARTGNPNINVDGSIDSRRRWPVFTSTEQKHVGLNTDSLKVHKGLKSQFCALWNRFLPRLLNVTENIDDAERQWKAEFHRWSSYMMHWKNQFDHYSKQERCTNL

[2] = Selectivity index, ratio of IC50 for dog serum BChE to IC50 for Electric eel AChE
[3] = target: Acetylcholinesterase (Electrophorus electricus) (UniProt O42275); assay: Competitive inhibition of Electric eel AChE using […] as substrate by spectrophotometry based Lineweaver-Burk plot analysis
Sequence of Acetylcholinesterase (Electrophorus electricus) (O42275 24-633 limits assumed): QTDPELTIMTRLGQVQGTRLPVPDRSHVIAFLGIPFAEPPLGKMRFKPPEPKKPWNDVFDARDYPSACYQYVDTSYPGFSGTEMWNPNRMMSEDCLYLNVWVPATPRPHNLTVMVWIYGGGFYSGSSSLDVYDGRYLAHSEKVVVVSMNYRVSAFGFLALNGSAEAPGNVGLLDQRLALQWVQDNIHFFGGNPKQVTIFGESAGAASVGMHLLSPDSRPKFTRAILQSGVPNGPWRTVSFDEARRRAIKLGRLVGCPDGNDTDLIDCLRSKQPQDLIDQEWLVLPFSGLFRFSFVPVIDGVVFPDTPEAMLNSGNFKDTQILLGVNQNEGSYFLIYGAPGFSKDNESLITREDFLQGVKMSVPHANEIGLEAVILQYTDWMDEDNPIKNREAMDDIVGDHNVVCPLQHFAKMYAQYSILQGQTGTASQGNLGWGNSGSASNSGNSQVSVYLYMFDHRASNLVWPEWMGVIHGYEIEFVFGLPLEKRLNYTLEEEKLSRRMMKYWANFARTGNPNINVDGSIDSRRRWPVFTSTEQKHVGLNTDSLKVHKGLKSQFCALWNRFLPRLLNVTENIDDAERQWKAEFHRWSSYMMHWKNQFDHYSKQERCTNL

Acetylcholinesterase [4] = target: T1, Acetylcholinesterase (Homo sapiens, UniProt P22303); assay: Inhibition of AChE (unknown origin) using […] as substrate incubated for 15 mins by Ellman's method
T1 sequence (P22303 whole entry): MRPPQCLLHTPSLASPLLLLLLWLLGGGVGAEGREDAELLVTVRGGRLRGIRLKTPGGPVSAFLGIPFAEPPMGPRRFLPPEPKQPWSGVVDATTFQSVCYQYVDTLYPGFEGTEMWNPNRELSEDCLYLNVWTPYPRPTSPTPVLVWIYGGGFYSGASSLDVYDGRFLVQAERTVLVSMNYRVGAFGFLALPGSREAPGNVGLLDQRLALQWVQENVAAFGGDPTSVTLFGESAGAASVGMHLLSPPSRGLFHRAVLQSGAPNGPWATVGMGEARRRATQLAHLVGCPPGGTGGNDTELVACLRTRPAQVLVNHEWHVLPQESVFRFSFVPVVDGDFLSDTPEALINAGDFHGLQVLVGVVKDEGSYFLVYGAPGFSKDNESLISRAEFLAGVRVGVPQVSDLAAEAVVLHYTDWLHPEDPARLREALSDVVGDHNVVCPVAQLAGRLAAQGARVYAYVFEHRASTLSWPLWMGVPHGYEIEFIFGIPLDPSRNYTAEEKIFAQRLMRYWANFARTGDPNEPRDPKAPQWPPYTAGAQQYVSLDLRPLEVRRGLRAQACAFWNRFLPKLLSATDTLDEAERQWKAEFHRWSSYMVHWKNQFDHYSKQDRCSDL

Acetylcholinesterase [5] = target: T1, Acetylcholinesterase; assay: Inhibition of AChE (unknown origin)

Sequence of Cholinesterase (P32750 whole entry): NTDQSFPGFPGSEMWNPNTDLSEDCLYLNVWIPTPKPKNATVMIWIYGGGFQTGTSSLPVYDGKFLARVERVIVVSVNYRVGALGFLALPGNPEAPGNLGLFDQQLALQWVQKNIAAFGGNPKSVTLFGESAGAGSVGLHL

Structure (SMILES)	IC50 (Cholinesterase) [µM]	IC50 (Acetylcholinesterase [1]) [µM]	other results
COc1ccc(CC(=O)Nc2ncc(-c3ccc(OCCCCN4CCCC4)cc3)s2)cc1OC	10.2	0.66	Ratio IC50 [2]: 16; inhibition [3]: Active
COc1ccc(CCC(=O)Nc2nc(-c3cc4ccccc4oc3=O)cs2)cc1OC	–	–	IC50 (Acetylcholinesterase [4]): 0.74 µM
COc1ccc(CC(=O)Nc2ncc(-c3ccc(OCCN4CCCC4)cc3)s2)cc1OC	23.9	6.31	–
COc1ccc(C(=O)Nc2ncc(-c3ccc(OCCCN4CCCC4)cc3)s2)cc1OC	8.1	39.3	–
COc1ccc(CC(=O)Nc2ncc(-c3ccc(OCCCN4CCCC4)cc3)s2)cc1OC	6.89	6.51	–
COc1ccc(CC(=O)Nc2ncc(-c3ccc(OCCCCN4CCCCC4)cc3)s2)cc1OC	49.2	0.95	Ratio IC50 [2]: 52
COc1ccc(CC(=O)Nc2ncc(-c3ccc(OCCCCCN4CCCC4)cc3)s2)cc1OC	9.85	3.34	–
C/C=C1\[C@H]2C=C(C)C[C@]1(N)c1ccc(=O)[nH]c1C2 [HUPERZINE A]	> 10000	–	–
COc1ccc(CC(=O)Nc2ncc(-c3ccc(OCCCN4CCCC4)cc3)s2)cc1	9.01	37.3	–
COc1ccc(CC(=O)Nc2ncc(-c3ccc(OCCCCSc4ccncc4)cc3)s2)cc1OC	14.3	5.5	–
COc1cc(CC(=O)Nc2ncc(-c3ccc(OCCCN4CCCC4)cc3)s2)cc(OC)c1OC	17.3	7.84	–
CCN(C)C(=O)Oc1cccc([C@H](C)N(C)C)c1 [RIVASTIGMINE]	6.27	–	–
COc1ccc(CC(=O)Nc2ncc(-c3ccc(OCCCCNC4CCN(Cc5ccccc5)CC4)cc3)s2)cc1OC	7.23	4.24	–
COc1ccc(CC(=O)Nc2ncc(-c3ccc(OCCCCN4CCN(Cc5ccccc5)CC4)cc3)s2)cc1OC	41	5.75	–
COc1ccc(-c2csc(NC(=O)CCN3CCCC3)n2)cc1	–	–	IC50 (Acetylcholinesterase [5]): 0.51 µM
